Results taken from patent US9062046B2, “Substituted imidazoquinoline derivatives as kinase inhibitors” (Piramal Enterprises Limited, priority 2011, dated 2015).

Experiments:
[1] = system: A2780 (ovarian cell line); experiment: Cytotoxicity assay (propidium iodide assay), A2780; format: cell-based; conditions: Homo sapiens, A2780 cells, 48 h treatment
Method: (§1) The assay was designed as in the reference, Anticancer Drugs, 2002, 13, 1-8, the disclosure of which is incorporated by reference for the teaching of the assay.
(§2) Cells from cell lines A2780 (ovarian cell line) and PC3 (prostate cell line) (both from ATCC) were seeded at a density of 3000 cells/well in a white opaque 96-well plate. Following incubation at 37° C./5% CO2 for a period of 18-24 h, the cells were treated with various concentrations (stock solution was prepared in DMSO and subsequent dilutions were made in media as per ATCC guidelines) of the test compounds for a period of 48 h. At the end of treatment, the culture medium was discarded, the cells were washed with 1×PBS and 200 μl of 7 μg/ml propidium iodide was added to each well. The plates were frozen at −70° C. overnight. For analysis, the plates were warmed to RT, allowed to thaw and were read in PoleStar fluorimeter with the fluorescence setting. The percentage of viable cells in the non-treated set of wells was considered to be 100 and the percentage viability following treatment was calculated accordingly. IC50 values were calculated from graphs plotted using these percentages.

PC3 (prostate cell line) = experiment: Cytotoxicity assay (propidium iodide assay), PC3; format: cell-based; conditions: Homo sapiens, PC-3, PC3 cells, 48 h treatment
Method: as §1, §2

Structure (SMILES) | IC50 [1] [µM] | IC50 (PC3 (prostate cell line)) [µM] | inhibition at 1 µM [1] [%] | inhibition at 1 µM (PC3 (prostate cell line)) [%]
COc1ccc(-n2c(=NC#N)n(C)c3cnc4ccc(-c5cnc(N)c(C(F)(F)F)c5)cc4c32)cn1 [Example 1, N-(8-(6-amino-5-(trifluoromethyl)pyridin-3-yl)-1-(6-methoxypyridin-3-yl)-3-methyl-1H-imidazo[4,5-c]quinolin-2(3H)-ylidene)cyanamide] | ≤ 0.5 | ≤ 0.5 |  | 
COc1ccc(-n2c(=NC#N)n(C)c3cnc4ccc(-c5ccc(N(C)C)nc5)cc4c32)cn1 [Example 2, N-(8-(6-(dimethylamino)pyridin-3-yl)-1-(6-methoxypyridin-3-yl)-3-methyl-1H-imidazo[4,5-c]quinolin-2(3H)-ylidene)cyanamide] | ≤ 0.5 | ≤ 0.5 |  | 
COc1ccc(-n2c(=NC#N)n(C)c3cnc4ccc(-c5cnc6ccccc6c5)cc4c32)cn1 [Example 3, N-(1-(6-methoxypyridin-3-yl)-3-methyl-8-(quinolin-3-yl)-1H-imidazo[4,5-c]quinolin-2(3H)-ylidene)cyanamide] | ≤ 0.5 | ≤ 0.5 |  | 
COc1ccc(-n2c(=NC#N)n(C)c3cnc4ccc(-c5cnc(N)c(C(F)(F)F)c5)cc4c32)c(Cl)n1 [Example 4, N-(8-(6-amino-5-(trifluoromethyl)pyridin-3-yl)-1-(2-chloro-6-methoxypyridin-3-yl)-3-methyl-1H-imidazo[4,5-c]quinolin-2(3H)-ylidene)cyanamide] | ≤ 0.5 | ≤ 0.5 |  | 
Cn1c(=NC#N)n(-c2ccc(C(C)(C)C#N)cc2)c2c3cc(-c4cnc(N)c(C(F)(F)F)c4)ccc3ncc21 [Example 6, N-(8-(6-amino-5-(trifluoromethyl)pyridin-3-yl)-1-(4-(2-cyanopropan-2-yl)phenyl)-3-methyl-1H-imidazo[4,5-c]quinolin-2(3H)-ylidene)cyanamide] | ≤ 0.5 | ≤ 0.5 |  | 
Cn1c(=NC#N)n(-c2ccc(C(C)(C)C#N)cc2)c2c3cc(-c4cnc5ccccc5c4)ccc3ncc21 [Example 7, N-(1-(4-(2-cyanopropan-2-yl)phenyl)-3-methyl-8-(quinolin-3-yl)-1H-imidazo[4,5-c]quinolin-2(3H)-ylidene)cyanamide] | ≤ 0.5 | ≤ 0.5 |  | 
COc1ccc(-n2c(=NC#N)n(C)c3cnc4ccc(-c5cnc(N)c(C(F)(F)F)c5)cc4c32)c(C)n1 [Example 9, N-(8-(6-amino-5-(trifluoromethyl)pyridin-3-yl)-1-(6-methoxy-2-methylpyridin-3-yl)-3-methyl-1H-imidazo[4,5-c]quinolin-2(3H)-ylidene)cyanamide] | ≤ 0.5 | ≤ 0.5 |  | 
Cn1c(=NC#N)n(-c2ccc(C#N)nc2)c2c3cc(-c4cnc(N)c(C(F)(F)F)c4)ccc3ncc21 [Example 10, N-(8-(6-amino-5-(trifluoromethyl)pyridin-3-yl)-1-(6-cyanopyridin-3-yl)-3-methyl-1H-imidazo[4,5-c]quinolin-2(3H)-ylidene)cyanamide] | ≤ 0.5 | ≤ 0.5 |  | 
Cn1c(=NC#N)n(-c2ccc3ncccc3c2)c2c3cc(-c4cnc(N)c(C(F)(F)F)c4)ccc3ncc21 [Example 11, N-(8-(6-amino-5-(trifluoromethyl)pyridin-3-yl)-3-methyl-1-(quinolin-6-yl)-1H-imidazo[4,5-c]quinolin-2(3H)-ylidene)cyanamide] | ≤ 0.5 | ≤ 0.5 |  | 
CNc1ncc(-c2ccc3ncc4c(c3c2)n(-c2ccc(C(C)(C)C#N)cc2)c(=NC#N)n4C)cc1C(F)(F)F [Example 12, N-(1-(4-(2-cyanopropan-2-yl)phenyl)-3-methyl-8-(6-(methylamino)-5-(trifluoromethyl)pyridin-3-yl)-1H-imidazo[4,5-c]quinolin-2(3H)-ylidene)cyanamide] | ≤ 0.5 | ≤ 0.5 |  | 
COc1ccc(-n2c(=NC#N)n(C)c3cnc4ccc(-c5cnc(OC)c(N)c5)cc4c32)c(OC)c1 [Example 13, N-(8-(5-amino-6-methoxypyridin-3-yl)-1-(2,4-dimethoxyphenyl)-3-methyl-1H-imidazo[4,5-c]quinolin-2(3H)-ylidene)cyanamide] |  |  | ≥ 70 | ≥ 70
COc1ccc(-n2c(=NC#N)n(C)c3cnc4ccc(-c5ccncc5)cc4c32)cn1 [Example 14, N-(1-(6-methoxypyridin-3-yl)-3-methyl-8-(pyridin-4-yl)-1H-imidazo[4,5-c]quinolin-2(3H)-ylidene)cyanamide] |  |  | ≥ 70 | 30 to 70
COc1ccc(-n2c(=NC#N)n(C)c3cnc4ccc(-c5cncc(C(F)(F)F)c5)cc4c32)cn1 [Example 25, N-(1-(6-methoxypyridin-3-yl)-3-methyl-8-(5-(trifluoromethyl)pyridin-3-yl)-1H-imidazo[4,5-c]quinolin-2(3H)-ylidene)cyanamide] |  |  | ≥ 70 | 30 to 70
COc1ccc(-n2c(=NC#N)n(C)c3cnc4ccc(-c5ccc6cccnc6c5)cc4c32)cn1 [Example 26, N-(1-(6-methoxypyridin-3-yl)-3-methyl-8-(quinolin-7-yl)-1H-imidazo[4,5-c]quinolin-2(3H)-ylidene)cyanamide] |  |  | ≥ 70 | 30 to 70
COc1ccc(-n2c(=NC#N)n(C)c3cnc4ccc(-c5ccccc5OC(C)C)cc4c32)cn1 [Example 27, N-(8-(2-isopropoxyphenyl)-1-(6-methoxypyridin-3-yl)-3-methyl-1H-imidazo[4,5-c]quinolin-2(3H)-ylidene)cyanamide] |  |  | < 30 | < 30
COc1ccc(-n2c(=NC#N)n(C)c3cnc4ccc(-c5cccc(Cl)c5)cc4c32)cn1 [Example 28, N-(8-(3-chlorophenyl)-1-(6-methoxypyridin-3-yl)-3-methyl-1H-imidazo[4,5-c]quinolin-2(3H)-ylidene)cyanamide] |  |  | 30 to 70 | < 30
COc1ccc(-n2c(=NC#N)n(C)c3cnc4ccc(-c5cccc(C)c5)cc4c32)cn1 [Example 29, N-(1-(6-methoxypyridin-3-yl)-3-methyl-8-m-tolyl-1H-imidazo[4,5-c]quinolin-2(3H)-ylidene)cyanamide] |  |  | 30 to 70 | < 30
COc1ccc(-n2c(=NC#N)n(C)c3cnc4ccc(-c5ccc(C#N)cc5)cc4c32)cn1 [Example 30, N-(8-(4-cyanophenyl)-1-(6-methoxypyridin-3-yl)-3-methyl-1H-imidazo[4,5-c]quinolin-2(3H)-ylidene)cyanamide] |  |  | < 30 | < 30
COc1ccc(-n2c(=NC#N)n(C)c3cnc4ccc(-c5ccccc5C)cc4c32)cn1 [Example 34, N-(1-(6-methoxypyridin-3-yl)-3-methyl-8-o-tolyl-1H-imidazo[4,5-c]quinolin-2(3H)-ylidene)cyanamide] |  |  | < 30 | < 30
COc1ccc(-n2c(=NC#N)n(C)c3cnc4ccc(-c5cncc6ccccc56)cc4c32)cn1 [Example 35, N-(8-(isoquinolin-4-yl)-1-(6-methoxypyridin-3-yl)-3-methyl-1H-imidazo[4,5-c]quinolin-2(3H)-ylidene)cyanamide] |  |  | ≥ 70 | 30 to 70
COc1ccc(-n2c(=NC#N)n(C)c3cnc4ccc(-c5ccc(OC)c(OC)c5)cc4c32)cn1 [Example 36, N-(8-(3,4-dimethoxyphenyl)-1-(6-methoxypyridin-3-yl)-3-methyl-1H-imidazo[4,5-c]quinolin-2(3H)-ylidene)cyanamide] |  |  | ≥ 70 | ≥ 70
COc1ccc(-n2c(=NC#N)n(C)c3cnc4ccc(-c5ccc(SC(C)C)cc5)cc4c32)cn1 [Example 37, N-(8-(4-(isopropylthio)phenyl)-1-(6-methoxypyridin-3-yl)-3-methyl-1H-imidazo[4,5-c]quinolin-2(3H)-ylidene)cyanamide] |  |  | 30 to 70 | < 30
COc1ccc(-n2c(=NC#N)n(C)c3cnc4ccc(-c5cccc(O)c5)cc4c32)cn1 [Example 38, N-(8-(3-hydroxyphenyl)-1-(6-methoxypyridin-3-yl)-3-methyl-1H-imidazo[4,5-c]quinolin-2(3H)-ylidene)cyanamide] |  |  | ≥ 70 | 30 to 70
COc1ccc(-n2c(=NC#N)n(C)c3cnc4ccc(-c5cnccc5F)cc4c32)cn1 [Example 39, N-(8-(4-fluoropyridin-3-yl)-1-(6-methoxypyridin-3-yl)-3-methyl-1H-imidazo[4,5-c]quinolin-2(3H)-ylidene)cyanamide] |  |  | 30 to 70 | 30 to 70
COc1ccc(-n2c(=NC#N)n(C)c3cnc4ccc(-c5cccc(F)c5)cc4c32)cn1 [Example 40, N-(8-(3-fluorophenyl)-1-(6-methoxypyridin-3-yl)-3-methyl-1H-imidazo[4,5-c]quinolin-2(3H)-ylidene)cyanamide] |  |  | 30 to 70 | < 30
COc1ccc(-n2c(=NC#N)n(C)c3cnc4ccc(-c5cccc(C(F)(F)F)c5)cc4c32)cn1 [Example 41, N-(1-(6-methoxypyridin-3-yl)-3-methyl-8-(3-(trifluoromethyl)phenyl)-1H-imidazo[4,5-c]quinolin-2(3H)-ylidene)cyanamide] |  |  | 30 to 70 | 30 to 70
COc1ccc(-n2c(=NC#N)n(C)c3cnc4ccc(-c5ccc(C)cc5)cc4c32)cn1 [Example 44, N-(1-(6-methoxypyridin-3-yl)-3-methyl-8-p-tolyl-1H-imidazo[4,5-c]quinolin-2(3H)-ylidene)cyanamide] |  |  | 30 to 70 | < 30
